Each block holds one molecule with its values, some of them ahead of it.
Key:
[1] = tested on: Blumeria graminis f. sp. tritici; test: Test G: preventive spray on wheat seedlings, wheat powdery mildew, visual disease rating;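 on all read-outs here: rated 8 days after spore dust inoculation at 20 °C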; format: in vivo; details: 200 ppm test suspension, Blumeria graminis f. sp. tritici inoculated the day after spraying; for pest or weed control at 200 ppm: 192 h
Protocol: General protocol for preparing test suspensions for Tests A-G: the test compounds were first dissolved in acetone in an amount equal to 3% of the final volume and then suspended at the desired concentration (in ppm) in acetone and purified water (50/50 mix by volume) containing 250 ppm of the surfactant Trem® 014 (polyhydric alcohol esters). The resulting test suspensions were then used in Tests A-G. Each test was conducted in triplicate, and the results were averaged. Spraying a 200 ppm test suspension to the point of run-off on the test plants was the equivalent of a rate of 800 g/ha. Unless otherwise indicated, the rating values indicate a 200 ppm test suspension was used. (An asterisk “*” next to the rating value indicates a 40 ppm test suspension was used.) The test suspension was sprayed to the point of run-off on wheat seedlings. The following day the seedlings were inoculated with a spore dust of Blumeria graminis f. sp. tritici (also known as Erysiphe graminis f. sp. tritici, the causal agent of wheat powdery mildew) and incubated in a growth chamber at 20° C. for 8 days, after which time visual disease ratings were made. Results for Tests A-G are given in Table A. In the Table, a rating of 100 indicates 100% disease control and a rating of 0 indicates no disease control (relative to the controls). A hyphen (-) indicates no test results.

Septoria nodorum = test: Test C: preventive spray on wheat seedlings, Septoria glume blotch, visual disease rating; format: in vivo; details: 200 ppm test suspension, Septoria nodorum inoculated the day after spraying; for pest or weed control at 200 ppm: Parastagonospora nodorum, 264 h
Protocol: General protocol for preparing test suspensions for Tests A-G: the test compounds were first dissolved in acetone in an amount equal to 3% of the final volume and then suspended at the desired concentration (in ppm) in acetone and purified water (50/50 mix by volume) containing 250 ppm of the surfactant Trem® 014 (polyhydric alcohol esters). The resulting test suspensions were then used in Tests A-G. Each test was conducted in triplicate, and the results were averaged. Spraying a 200 ppm test suspension to the point of run-off on the test plants was the equivalent of a rate of 800 g/ha. Unless otherwise indicated, the rating values indicate a 200 ppm test suspension was used. (An asterisk “*” next to the rating value indicates a 40 ppm test suspension was used.) The test suspension was sprayed to the point of run-off on wheat seedlings. The following day the seedlings were inoculated with a spore suspension of Septoria nodorum (the causal agent of Septoria glume blotch) and incubated in a saturated atmosphere at 24° C. for 48 h, and then moved to a growth chamber at 20° C. for 9 days, after which time visual disease ratings were made. Results for Tests A-G are given in Table A. In the Table, a rating of 100 indicates 100% disease control and a rating of 0 indicates no disease control (relative to the controls). A hyphen (-) indicates no test results.

[2] = tested on: Puccinia recondita f. sp. tritici; test: Test F: preventive spray on wheat seedlings, wheat leaf rust, visual disease rating; format: in vivo; details: 200 ppm test suspension, Puccinia recondita f. sp. tritici inoculated the day after spraying; for pest or weed control at 200 ppm: 168 h
Protocol: General protocol for preparing test suspensions for Tests A-G: the test compounds were first dissolved in acetone in an amount equal to 3% of the final volume and then suspended at the desired concentration (in ppm) in acetone and purified water (50/50 mix by volume) containing 250 ppm of the surfactant Trem® 014 (polyhydric alcohol esters). The resulting test suspensions were then used in Tests A-G. Each test was conducted in triplicate, and the results were averaged. Spraying a 200 ppm test suspension to the point of run-off on the test plants was the equivalent of a rate of 800 g/ha. Unless otherwise indicated, the rating values indicate a 200 ppm test suspension was used. (An asterisk “*” next to the rating value indicates a 40 ppm test suspension was used.) The test suspension was sprayed to the point of run-off on wheat seedlings. The following day the seedlings were inoculated with a spore suspension of Puccinia recondita f. sp. tritici (the causal agent of wheat leaf rust) and incubated in a saturated atmosphere at 20° C. for 24 h, and then moved to a growth chamber at 20° C. for 6 days, after which time visual disease ratings were made. Results for Tests A-G are given in Table A. In the Table, a rating of 100 indicates 100% disease control and a rating of 0 indicates no disease control (relative to the controls). A hyphen (-) indicates no test results.

Septoria tritici = test: Test D: preventive spray on wheat seedlings, wheat leaf blotch, visual disease rating; format: in vivo; details: 200 ppm test suspension, Septoria tritici inoculated the day after spraying; for pest or weed control at 200 ppm: Zymoseptoria tritici, 504 h
Protocol: General protocol for preparing test suspensions for Tests A-G: the test compounds were first dissolved in acetone in an amount equal to 3% of the final volume and then suspended at the desired concentration (in ppm) in acetone and purified water (50/50 mix by volume) containing 250 ppm of the surfactant Trem® 014 (polyhydric alcohol esters). The resulting test suspensions were then used in Tests A-G. Each test was conducted in triplicate, and the results were averaged. Spraying a 200 ppm test suspension to the point of run-off on the test plants was the equivalent of a rate of 800 g/ha. Unless otherwise indicated, the rating values indicate a 200 ppm test suspension was used. (An asterisk “*” next to the rating value indicates a 40 ppm test suspension was used.) The test suspension was sprayed to the point of run-off on wheat seedlings. The following day the seedlings were inoculated with a spore suspension of Septoria tritici (the causal agent of wheat leaf blotch) and incubated in saturated atmosphere at 24° C. for 48 h. and then the seedlings were moved to a growth chamber at 20° C. for 19 additional days, after which time visual disease ratings were made. Results for Tests A-G are given in Table A. In the Table, a rating of 100 indicates 100% disease control and a rating of 0 indicates no disease control (relative to the controls). A hyphen (-) indicates no test results.

[3] = tested on: Puccinia recondita f. sp. tritici; test: Test E: spray after inoculation of wheat seedlings, wheat leaf rust, visual disease rating; format: in vivo; details: 200 ppm test suspension, sprayed after inoculation with Puccinia recondita f. sp. tritici
Protocol: General protocol for preparing test suspensions for Tests A-G: the test compounds were first dissolved in acetone in an amount equal to 3% of the final volume and then suspended at the desired concentration (in ppm) in acetone and purified water (50/50 mix by volume) containing 250 ppm of the surfactant Trem® 014 (polyhydric alcohol esters). The resulting test suspensions were then used in Tests A-G. Each test was conducted in triplicate, and the results were averaged. Spraying a 200 ppm test suspension to the point of run-off on the test plants was the equivalent of a rate of 800 g/ha. Unless otherwise indicated, the rating values indicate a 200 ppm test suspension was used. (An asterisk “*” next to the rating value indicates a 40 ppm test suspension was used.) Wheat seedlings were inoculated with a spore suspension of Puccinia recondita f. sp. tritici (the causal agent of wheat leaf rust) and incubated in a saturated atmosphere at 20° C. for 24 h, and then moved to a growth chamber at 20° C. for 2 days. At the end of this time the, the test suspension was sprayed to the point of run-off on the wheat seedlings, and then the seedlings were moved back to the growth chamber at 20° C. for 4 days. Upon removal, visual disease ratings were made. Results for Tests A-G are given in Table A. In the Table, a rating of 100 indicates 100% disease control and a rating of 0 indicates no disease control (relative to the controls). A hyphen (-) indicates no test results.

Alternaria solani = test: Test B: preventive spray on tomato seedlings, tomato early blight, visual disease rating; format: in vivo; details: 200 ppm test suspension, Alternaria solani inoculated the day after spraying
Protocol: General protocol for preparing test suspensions for Tests A-G: the test compounds were first dissolved in acetone in an amount equal to 3% of the final volume and then suspended at the desired concentration (in ppm) in acetone and purified water (50/50 mix by volume) containing 250 ppm of the surfactant Trem® 014 (polyhydric alcohol esters). The resulting test suspensions were then used in Tests A-G. Each test was conducted in triplicate, and the results were averaged. Spraying a 200 ppm test suspension to the point of run-off on the test plants was the equivalent of a rate of 800 g/ha. Unless otherwise indicated, the rating values indicate a 200 ppm test suspension was used. (An asterisk “*” next to the rating value indicates a 40 ppm test suspension was used.) The test suspension was sprayed to the point of run-off on tomato seedlings. The following day the seedlings were inoculated with a spore suspension of Alternaria solani (the causal agent of tomato early blight) and incubated in a saturated atmosphere at 27° C. for 48 h, and then moved to a growth chamber at 20° C. for 5 days, after which time visual disease ratings were made. Results for Tests A-G are given in Table A. In the Table, a rating of 100 indicates 100% disease control and a rating of 0 indicates no disease control (relative to the controls). A hyphen (-) indicates no test results.

Botrytis cinerea = test: Test A: preventive spray on tomato seedlings, tomato Botrytis, visual disease rating; format: in vivo; details: 120 h, 200 ppm test suspension, Botrytis cinerea inoculated the day after spraying
Protocol: General protocol for preparing test suspensions for Tests A-G: the test compounds were first dissolved in acetone in an amount equal to 3% of the final volume and then suspended at the desired concentration (in ppm) in acetone and purified water (50/50 mix by volume) containing 250 ppm of the surfactant Trem® 014 (polyhydric alcohol esters). The resulting test suspensions were then used in Tests A-G. Each test was conducted in triplicate, and the results were averaged. Spraying a 200 ppm test suspension to the point of run-off on the test plants was the equivalent of a rate of 800 g/ha. Unless otherwise indicated, the rating values indicate a 200 ppm test suspension was used. (An asterisk “*” next to the rating value indicates a 40 ppm test suspension was used.) The test suspension was sprayed to the point of run-off on tomato seedlings. The following day the seedlings were inoculated with a spore suspension of Botrytis cinerea (the causal agent of tomato Botrytis) and incubated in saturated atmosphere at 20° C. for 48 h, and then moved to a growth chamber at 24° C. for 3 additional days, after which time visual disease ratings were made. Results for Tests A-G are given in Table A. In the Table, a rating of 100 indicates 100% disease control and a rating of 0 indicates no disease control (relative to the controls). A hyphen (-) indicates no test results.

Compound: Cc1nn(C)c(C(O)C2CCCCC2)c1-c1c(F)cccc1Cl (stereo not drawn) [Compound 16, 4-(2-chloro-6-fluorophenyl)-α-cyclohexyl-1,3-dimethyl-1H-pyrazole-5-methanol]
pest or weed control at 200 ppm [1]: 100% | pest or weed control at 200 ppm (Septoria nodorum): 0% | pest or weed control at 200 ppm [2]: 79% | pest or weed control at 200 ppm (Septoria tritici): 100% | Test E rating (disease control) [3]: 0% | Test B rating (disease control) (Alternaria solani): 89%

Compound: CC=C(C)C(O)c1c(-c2c(F)cccc2Cl)c(C)nn1C (stereo not drawn) [Compound 17]
Test G rating (disease control) [1]: 78% | Test C rating (disease control) (Septoria nodorum): 0% | Test F rating (disease control) [2]: 74% | Test D rating (disease control) (Septoria tritici): 72% | Test E rating (disease control) [3]: 9% | Test B rating (disease control) (Alternaria solani): 58%

Compound: CCC=C(C)C(O)c1c(-c2c(F)cccc2F)c(C)nn1C (stereo not drawn) [Compound 18]
Test G rating (disease control) [1]: 60% | Test C rating (disease control) (Septoria nodorum): 0% | Test F rating (disease control) [2]: 18% | Test D rating (disease control) (Septoria tritici): 24% | Test E rating (disease control) [3]: 9% | Test B rating (disease control) (Alternaria solani): 96%

melting point: 98 to 100 °C
Compound: Cc1nn(C)c(N2CCC(C)CC2)c1-c1ccc(F)cc1Cl [Compound 42, 1-[4-(2-chloro-4-fluorophenyl)-1,3-dimethyl-1H-pyrazol-5-yl]-4-methylpiperidine]
pest or weed control at 200 ppm [1]: 0% | pest or weed control at 200 ppm (Botrytis cinerea): 0% | pest or weed control at 200 ppm (Septoria nodorum): 0% | pest or weed control at 200 ppm [2]: 72% | pest or weed control at 200 ppm (Septoria tritici): 99%
